Patent US20210361683A1, “COMPOSITIONS AND METHODS FOR THE TREATMENT OF MUSCLE CONTRACTURES” (Children's Hospital Medical Center, priority 2018, published 2021)
Entries after “also recorded” stand apart in the source; their conditions may differ.

Legend:
[1] = tested on: brachialis muscle after NBPI; assay: Brachialis sarcomere length (muscle length) 4 weeks post-NBPI; assay type: in vivo, mice; conditions: 0.3 mg/kg, P8 to P33
Method: Sarcomere lengths were measured from single muscle fibers, acquiring 6 images per fiber by differential interference contrast (DIC) microscopy on a Nikon Eclipse Ti-E inverted microscope with the Plan Apo λ40× objective (Nikon Instruments), Xyla 4.2 megapixel, 16-bit sCMOS monochromatic camera (Andor/Oxford Instruments) and NIS-Elements imaging software (Nikon Instruments). A series of 10 sarcomeres were measured per image in AxioVision software and an average sarcomere length was then determined for each fiber.
Mouse limbs harvested 4 weeks post-NBPI were processed on cork at 90° elbow flexion (confirmed by digital x-ray) prior to fixation in 10% NBF as described previously^16. […]
Mice were treated either with saline (as the vehicle; 0.9% Sodium Chloride Injection USP, Hospira), [Gly^14]-Humanin G ([Gly14]-HN; 1 μg/dose; H6161, Sigma-Aldrich) alone or co-administered with Bortezomib (0.2-0.4 mg/kg body weight; 5043140001, Sigma-Aldrich) by IP injection starting immediately post-operative or delayed by 3/7 days (P8/12 start), and injected every other day with sacrifice at 4 weeks post-NBPI (24 h following the last IP injection). […] Deficits in motor function were confirmed as described above, and measurement of shoulder and elbow range of motion was measured immediately post-sacrifice^16 with blinding to the treatment group. […]

[2] = tested on: elbow and shoulder contractures after neonatal brachial plexus injury (NBPI); assay: Elbow and shoulder contracture severity (range of motion) in mouse model of NBPI; assay type: in vivo, mice; conditions: for contracture severity (efficacy): compared to 0.4 mg/kg from P5; for shoulder and elbow contracture severity: 4 weeks after NBPI
Text: All animal procedures were approved by Cincinnati Children's Hospital Medical Center's Institutional Animal Care and Use Committee. Unilateral global (C5-T1) NBPIs were created by surgical extraforaminal nerve root excision in 5-day-old CD-1 mice (Charles River) under general anesthesia. Deficits in motor function were validated post-operatively and again prior to sacrifice to ensure only animals with permanent motor deficits were included for analysis. Elbow and shoulder (where indicated) range of motion were measured immediately post-sacrifice using a validated digital photography technique in order to confirm the presence of elbow flexion and shoulder internal rotation contractures^16. Mice were euthanized by CO2 asphyxiation, except at postnatal day 5 and 12 time points, where isoflurane overdose was utilized.
(§1) Mice were treated either with saline (as the vehicle; 0.9% Sodium Chloride Injection USP, Hospira), [Gly^14]-Humanin G ([Gly14]-HN; 1 μg/dose; H6161, Sigma-Aldrich) alone or co-administered with Bortezomib (0.2-0.4 mg/kg body weight; 5043140001, Sigma-Aldrich) by IP injection starting immediately post-operative or delayed by 3/7 days (P8/12 start), and injected every other day with sacrifice at 4 weeks post-NBPI (24 h following the last IP injection). The use of littermate controls was rejected due to the risk of treatment cross-contamination either through direct contact or by ingestion from their mother, and [Gly14]-HN was included to mitigate the toxicity that has been reported for Bortezomib^47. Deficits in motor function were confirmed as described above, and measurement of shoulder and elbow range of motion was measured immediately post-sacrifice^16 with blinding to the treatment group. Mouse limbs harvested 4 weeks post-NBPI were positioned on cork for processing of bilateral brachialis muscles for DIC microscopy as described above for measurement of muscle sarcomere length.

[3] = Survival / mortality of NBPI mice during treatment; assay type: in vivo
Method: as §1

CC(C)C[C@H](NC(=O)[C@H](Cc1ccccc1)NC(=O)c1cnccn1)B(O)O [Bortezomib, ([1R)-3-methyl-1-[[(2S)-1-oxo-3-phenyl-2-[(pyrazinylcarbonyl)amino]propyl]amino]butyl]-boronic acid]
reduction in the sarcomere elongation caused by NBPI (rescue of brachialis length) [1]: 70% | sarcomere length in the brachialis [1]: preserves muscle length | contracture severity ([2]; 0.2 mg/kg, P5 to P33): less severe contractures compared to saline they were not as efficacious as 0.4 mg/kg Bortezomib administered beginning at P5 | contracture severity (efficacy) ([2]; 0.3 mg/kg, P5 to P33): maintained efficacy | prevention of contractures ([2]; 0.3 mg/kg, P8 to P33): optimal efficacy in prevention of contractures; also recorded: lack of contractures | shoulder and elbow contracture severity ([2]; 0.4 mg/kg every other day IP, P5 to P33, co-administered with [Gly14]-Humanin, vs saline): significantly reducing shoulder and elbow contracture severity; also recorded: corrected | contracture severity (efficacy) ([2]; 0.4 mg/kg, P8 to P33): maintained efficacy | contracture severity ([2]; 0.4 mg/kg, P12-P33): less severe contractures compared to saline they were not as efficacious as 0.4 mg/kg Bortezomib administered beginning at P5 | prevention of contractures, dose dependence ([2]; 0.2-0.4 mg/kg following NBPI): prevents contractures in a dose-dependent manner | mortality ([3]; 0.2 mg/kg, P5 to P33): eliminated mortality | mortality ([3]; 0.3 mg/kg, P5 to P33, compared to 0.4 mg/kg from P5): partially improved mortality | mortality (early death) ([3]; 0.3 mg/kg, P8 to P33): minimal early death | mortality ([3]; 0.4 mg/kg every other day, P5 to P33): caused mortality, mostly in the first week of treatment | mortality ([3]; 0.4 mg/kg, P8 to P33, compared to 0.4 mg/kg from P5): partially improved mortality | mortality ([3]; 0.4 mg/kg, P12-P33): eliminated mortality

[Gly^14]-Humanin
shoulder and elbow contracture severity ([2]; [Gly14]-Humanin alone, 1 μg/dose IP every other day): no effect alone
